The source of these data is US9725430B2, “Use of small molecule inhibitors targeting EYA tyrosine phosphatase” (Children's Hospital Medical Center, priority 2013, dated 2017).

The structures appear in SMILES notation.

Data set [1] has as its system mouse aortic rings. In words: Aortic ring sprouting assay. Format: cell-based. The settings on record: 5 μM, 10 days. The procedure: Additionally, the effect of compounds 1d, 1f, 1h, 1i, 1g, 2 and 2a on cell proliferation, migration, tube formation, micro-vessel branching, and perivascular recruitment using an aortic ring sprouting assay. When slices of mouse aorta are cultured in collagen gels there is typically a lag phase for the first 4 days followed by linear sprouting of endothelial cells. By day 6, branching is observed. All the test compounds were initially assayed at 7.5 μM and the number of branch-points counted. When there was a severe effect (no visible sprouting), or when there was no apparent effect, other doses were tested to establish a dose-dependence. All of the compounds assayed were able to attenuate aortic ring sprouting. There was a strong reduction in initial sprouting and some attenuation of branching. With the exception of 2a, in all cases where there was sprouting, the length of sprouts was shorter than in the controls.
Endothelial cell migration can also be studied […] using the aortic ring assay in which sprouting angiogenesis is monitored by the formation of vascular sprouts outside the wall of mouse aortic rings incubated in collagen matrix and stimulated by VEGF (Gerhardt, H., et al. EXS, 3-15 (2005), hereby incorporated by reference in its entirety). Briefly, mice were obtained from the Cincinnati Children's veterinary service and handled according to the institutional animal care and use protocol. […] Mice were 4 to 6 weeks old female C57BL16, and aortic ring explants were cultured at 37° C. in a humidified incubator under a 5% CO2 atmosphere.
Each inhibitor was serially diluted (between 0.25 mM and 7.5 mM) to stocks of 1000× the working concentrations in sterile 100% DMSO in order to achieve an equal final concentration of DMSO (0.1% v/v) in all culture conditions. For the experiments, the compounds were diluted in EBM containing 2.5% FBS, penicillin/streptomycin and 20 ng/ml VEGF165 (R&D Systems, Minneapolis, Minn.). Each compound was applied from the first day of culture over a 10-day period with medium change every two days. In all experiments, the vehicle (DMSO, 0.1%) was used as control. The sprouting density was derived from counting the number of branches per ring, and the extent of angiogenic sprouting was estimated by measuring the total surface area covered by the vessels as illustrated in FIG. 7.

The subject of data set [2] is MCF10A(EYA2) cells. Nature of the data set: Transwell migration of MCF10A-EYA2 cells. Format: cell-based. Conditions: 7.5 μM. An excerpt: The tyrosine phosphatase activity of Eya3 and Eya2 promotes single cell motility in breast cancer cells (Pandey, R. N. et al. Oncogene (2010) 29:3715-3722, incorporated by reference in its entirety). EYA2 is over-expressed in breast cancers and is associated with increased metastasis and a poorer outcome (Farabaugh, et al. Oncogene (2011) 259). […] Overexpression of EYA2, but not the tyrosine-phosphatase dead mutant, promoted cell motility (FIG. 2a). […] This effect was dose-dependent (FIG. 2d) and compound (1a) was able to reduce cell motility by over 50% at the lowest concentration (1 μM) tested.
In order to determine whether EYA3 knock down would affect cell migration, a modified Boyden chamber assay was used to measure HUVEC migration. Briefly, human umbilical vein endothelial cells (HUVECs) were purchased from Lonza (Walkersville, Md.) and maintained in the endothelial cell growth medium (PromoCell, Hleidelberg, Germany), under a 5% CO2 atmosphere. MCF10A cells from ATCC were stably transfected with either pcDNA 3.2N5-DEST (vector control), V5-EYA2 or V5-EYA2(D250N). Transwell migration experiments were performed as previously described (Pandey, R. N. et al. Oncogene 29, 3715-3722, (2010)).

The target in data set [3] is PTP1B (Homo sapiens (Human), UniProt P18031). In words: PTP1B-catalyzed pNPP hydrolysis. Conditions: for IC50: pNPP substrate. In kind it is biochemical. The procedure: The catalytic domain of human Eya2 (“hEYA2(ED)”) was similarly sub-cloned as a polyhistidine fusion construct in the vector pDEST-527. Fusion protein was purified by NiNTA chromatography and followed by size-exclusion chromatography over a Superdex-75 column. The relative purity of protein samples was determined using SDS-PAGE. PTP1B was purified as described previously (Rayapureddi, J. P. et al. Nature 426, 295-298 (2003), incorporated by reference in its entirety).
An inhibitory assay was conducted using the previously described p-nitrophenylphosphate assay (Rayapureddi, J. P. et al. Nature 426, 295-298 (2003)). Briefly, ED was incubated in a reaction mixture containing 20 mM MES pH 6, 2 mM MgCl2, 125 μM inhibitor, 3.4 mM para-nitrophenol phosphate (pNPP) and 0.01 μg/μL enzyme.
PTP1B is a classical Cys-based tyrosine phosphatase.

The test system of data set [4] is HUVECs. In words: HUVEC cell viability assay (WST-8). In kind it is cell-based, human. The settings on record: 3 days of exposure. On the procedure: Additionally, a cell viability assay was conducted over 3 days of exposure to test compounds 1, 1a and 1g in order to assess both the possibility of immediate cellular toxicity as well as any effect on cell proliferation. HUVECs were seeded and equilibrated for 24 hours before addition of the test compounds. Cellular metabolic activity was measured at defined time-points using the tetrazolium dye WST-8 to quantify NAD(P)H-dependent cellular oxidoreductase enzyme activity.
Background: Formazan colour is commonly taken as a measure of viable cells.

In data set [5] the target is EYA3 (Homo sapiens (Human), UniProt Q99504). In words: pNPP assay, full-length human recombinant EYA3. Format: biochemical. From the text:
The catalytic domain of mouse Eya3 (“ED”, comprising residues 223-510 of Eya3) was purified as described by Rayapureddi, J. P. et al. (FEBS Lett 580, 3853-3859 (2006), incorporated by reference in its entirety). For full-length Eya3 (“hEYA3”), human Eya3 isoform 2 (representing the major species identified in human cell lines by mass spectrometry, expressed as residues 127-573 of NM_001990, isoform 1) was sub-cloned into pDEST565 to express a poly-histidine-Glutathione-S-transferase (His-GST) tagged fusion protein with a TVMV protease site. The protein was purified by glutathione-S-transferase affinity chromatography followed by TVMV cleavage, Ni-NTA chromatography, and finally size exclusion chromatography. […]
The compounds were then tested using full-length human recombinant, purified EYA3 and pNPP as a substrate. Compounds were dissolved in DMSO and diluted as needed. […] Reactions were incubated at 30° C. for 30 minutes and quenched with 100 mM EDTA pH 10. IC50 values were then calculated directly from regression curves using PRISM software. All reported values are the mean of two independent experiments.

EYA3, sequence (Q99504 127-573): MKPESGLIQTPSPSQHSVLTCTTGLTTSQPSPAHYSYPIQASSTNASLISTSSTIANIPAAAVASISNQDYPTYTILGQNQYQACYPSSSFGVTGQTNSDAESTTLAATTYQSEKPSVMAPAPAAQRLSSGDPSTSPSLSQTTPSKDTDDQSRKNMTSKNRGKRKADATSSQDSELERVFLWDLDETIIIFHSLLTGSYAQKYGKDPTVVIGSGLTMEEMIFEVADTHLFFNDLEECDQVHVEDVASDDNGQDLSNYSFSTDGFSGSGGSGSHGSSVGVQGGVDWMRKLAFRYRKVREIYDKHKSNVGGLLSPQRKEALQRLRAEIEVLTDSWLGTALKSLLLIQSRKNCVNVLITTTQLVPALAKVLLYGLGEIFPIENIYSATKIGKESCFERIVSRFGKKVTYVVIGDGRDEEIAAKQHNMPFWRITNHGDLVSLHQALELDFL
PTP1B, sequence (P18031 whole entry, species assumed, the tested form may be a part): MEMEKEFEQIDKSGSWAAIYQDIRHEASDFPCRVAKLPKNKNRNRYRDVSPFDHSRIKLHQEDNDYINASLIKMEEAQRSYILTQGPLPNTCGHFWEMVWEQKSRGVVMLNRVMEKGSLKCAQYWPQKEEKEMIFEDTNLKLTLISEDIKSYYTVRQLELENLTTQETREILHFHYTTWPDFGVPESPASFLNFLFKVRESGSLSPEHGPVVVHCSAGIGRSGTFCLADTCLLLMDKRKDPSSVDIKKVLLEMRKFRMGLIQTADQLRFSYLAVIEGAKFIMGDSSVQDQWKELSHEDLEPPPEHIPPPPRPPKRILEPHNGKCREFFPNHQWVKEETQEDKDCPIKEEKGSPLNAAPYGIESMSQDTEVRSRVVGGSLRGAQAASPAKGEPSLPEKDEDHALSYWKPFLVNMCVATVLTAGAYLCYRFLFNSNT

One may read the IC50 as the midpoint of a concentration-inhibition curve. Take `CCc1oc2ccccc2c1C(=O)c1ccc(O)cc1` [Compound 1a]: the “sprout length and microvascular density of aortic rings” value in data set [1] is “shorter sprouts and significantly lower microvascular density”. In data set [2], the cell migration result is “significantly inhibited cell migration”. For the same molecule, in data set [3] (EYA3 vs PTP1B), the “fold greater activity towards EYA3 than PTP1B” value is “over 100 fold”. Further, the IC50 in data set [3] is more than 150 µM; in data set [5] (pNPP substrate, full-length EYA3) it was 17 µM. For the same molecule, the cell viability entry in data set [4] is “reduced cell viability”.

For `CCc1oc2ccccc2c1C(=O)c1cc(Br)c(O)c(Br)c1` [Compound 1, Benzbromarone, reference compound], in data set [1], the “sprout length and microvascular density of aortic rings” value is “shorter sprouts and significantly lower microvascular density”. The cell migration result in data set [2] is “significantly inhibited cell migration”. Besides, 53.8 µM corresponded to half-maximal inhibition in data set [3] (IC50). In addition, the cell viability entry in data set [4] is given as “reduced cell viability”. In data set [5] (0.01% Triton X-100), the “inhibitory effect in presence of detergent” value is reported as “retained”. The “mode of inhibition (substrate titration)” value in data set [5] (increasing substrate concentration) is “not a competitive inhibitor”.
